Laboratory results reported in patent US6180669A, “Method for treatment of dermatological disorders” (priority 1999, dated 2001).
“Also recorded” adds a separate entry of the source. Like-named read-outs stand apart in the source and are kept apart here.

Tests used:
[1] = tested on: human keratinocytes; assay: Cell proliferation assay; assay type: cell-based; conditions: for IC50: Homo sapiens; for potency in inhibiting cell proliferation (in words): in vitro, keratinocytes
Method: Modulation of keratinocyte proliferation.
Cell proliferation assay.
50,000 human keratinocytes from secondary culture were seeded into 24 well plates, in 1 ml DMEM-F12 medium (Green H. (1978) Cell 15:801-805) with growth factors and 10% Fetal Calf Serum. The cells were incubated at 37° C. in 5% CO2 until 30-40% confluency was reached and then the various test materials, dissolved in ethanol, were added in volumes of 0.1-20 μl, to final volume of 0.5 ml. The same volumes of ethanol were added to control cultures, for comparative values of ethanol cytotoxicity. No apparent cytotoxicity was found up to 40 μl ml ethanol. The medium was replaced with fresh medium prior to addition of the test materials. The cultures were further incubated for 3 days at 37° C. and 5% CO2 and then washed with phosphate buffered saline (PBS). Cell numbers were determined using two methods: 1) trypsinization, followed by cell counting; and 2) fixation of the culture with p-formaldehyde 2% in PBS and methylene blue staining, followed by extraction of color and optical density measurement at 650 nm. Both methods were found in good correlation, so that 1 OD unit corresponded to 1,000,000 cells. IC50, i.e., the concentration that caused 50% inhibition of cell proliferation for each of the test materials is presented in Table 1.

[2] = in vitro; conditions: human, keratinocytes
Method: The direct effect of the compounds of the invention on the proliferation of human keratinocytes was assessed in vitro using a keratinocyte cell line.
Modulation of keratinocyte proliferation. The effect of di(ethyl salycilate)azelate and di-retinyl azelate on cell proliferation and cell viability was tested in vitro using human keratinocyte culture system.
Keratinocyte cells, as above, were allowed to proliferate in medium, without the test materials, up to 100% confluency, with one exchange of medium during growth. Confluent cultures were incubated with increasing concentrations of the test materials in ethanol for three days at 37° C. and 5% CO2. At the end of the incubation period the cultures were washed with PBS and measured for remaining attached cells using the above described methods.

[3] = tested on: acne; conditions: 20% preparation, twice daily; Fitton and Goa; cited from earlier work
[4] = tested on: sebaceous glands; conditions: topical, literature, cited from earlier work
[5] = tested on: keratinocytes; conditions: Passi et al.; cited from earlier work
[6] = tested on: reduction of testosterone to dihydrotestosterone; conditions: literature; cited from earlier work
[7] = tested on: comedones, rabbit ear acne model; assay: Efficacy in the rabbit ear acne model (comedolytic effect); assay type: in vivo
Method: See, Lee, et al. Kor. J. Dermatol. 28(5):543-549 (1990).
Efficacy of di(ethyl salicylate)azelate (10%) in the rabbit ear acne model. Three mature male albino rabbits were treated as follows. The external ear canals on both ears were treated once daily for five weekdays for three weeks with 1% crude coal tar in Hydrophilic Ointment USP. Then one ear was treated with antiacne lotion of Example 4 once daily for five weekdays for three weeks while the opposite ear served as an untreated control. Excision biopsies were taken from both sides at the end of three weeks of treatment. […] These were judged to be moderate examples of comedones with distortion of the follicular infundibulum by dense horn.

[8] = tested on: skin of a human subject; assay: Human skin irritation test; assay type: in vivo; conditions: 48 h application, 0.1 ml; observed upon removal and 1, 24, 48 h later; ester 20%; mixture 7.5% azelaic acid + 11% salicylic acid
Method: Human skin irritation test. The following lotions (0.1 ml) were applied to the skin of a human subject for 48 hours, using standard skin irritation test chambers (0.64 sq. cm.):
(1) 20% di(ethyl salicylate)azelate (400 mmole/ml), dissolved in PEG-400/ethanol 1:1;
(2) mixture of 7.5% azelaic acid (400 mmole/ml) and 11% salicylic acid (800 mmole/ml), dissolved in PEG-400/ethanol 1:1; and
(3) PEG-400/ethanol 1:1 (placebo).

[9] = tested on: skin of rabbits; assay: Acute dermal toxicity/irritation test (modified Draise); assay type: in vivo, rabbit; conditions: 10% and 20%, 0.5 ml, 24 h application, observed 1, 24 and 72 h after removal
Method: These findings emphasize a distinct advantage of di(ethyl salicylate)azelate over its parent components.
Acute dermal toxicity/irritation test. The purpose of this study was to evaluate the acute potential dermal irritation effect on skin following the topical application of di(ethyl salicylate) azelate, in rabbits. This test is a modified version of the original Draise method, as described in OECD guidelines. 0.5 ml of either di(ethyl salicylate)azelate (10% or 20%, dissolved in PEG-400/ethanol 1:1) or the vehicle alone were applied to the skin of three rabbits for 24 hours. Rabbits were examined for signs of skin irritation 1, 24 and 72 hours after the removal of the test solutions. […] Based on the current protocol it was concluded that di(ethyl salicylate) azelate is a non-irritant agent.

[10] = tested on: skin oiliness of forehead; assay: Sebolytic effect (skin oiliness of forehead, Skin Tester); assay type: in vivo, human; conditions: lotion of Example 5, twice daily, 14 days; prior to treatment 223 units
Method: Following fourteen days of topical treatment, the skin oiliness of the forehead of a human volunteer, tested using a photometric instrument was reduced from 223 units (resembling "oily skin") to 205 units (normal skin value).
Sebolytic effect of di(ethyl salicylate)azelate. […] Skin oiliness was tested using "Skin Tester, Model STC20" (IMS Ltd., Haifa, Israel) prior to treatment and 14 days thereafter. Prior to treatment, the sebum value was 223 units, typical of oily skin. The sebum value after two weeks of treatment was 205 units, corresponding to normal skin.

[11] = tested on: culicoides hypersensitivity; assay: Effect on culicoides hypersensitivity in horses; assay type: in vivo, horse; conditions: 5% alcoholic solution, topically twice daily for two weeks
Method: Prior to treatment, the horses had typical occurrence of the disease, including localized dermatitis affecting the mane and poll and the root of the tail. FIG. 1 is a photograph of the mane area of a horse afflicted by culicoides hypersensitivity. […] The skin at the affected areas looked hairless, ridged and scaly. The shoulder area and hind quarters were also affected. The horses were treated topically with a 5% alcoholic solution of di(ethyl salicylate) azelate, twice daily for two weeks.
The effect of di(ethyl salicylate) azelate on culicoides hypersensitivity was tested in two horses with colicoides hypersensitivity. Prior to treatment, both horses had typical occurrence of the disease, including localized dermatitis affecting the mane and poll and the root of the tail. The shoulder area and hind quarters were also affected. The skin at the affected areas looked hairless, ridged and scaly. The horses were treated topically with a 5% alcoholic solution of di(ethyl salicylate)azelate, twice daily for two weeks. […] As clearly seen in the pictures, hair seemed to regrow and the skin looked healthy. This improvement persisted throughout 14 days of treatment and observation.

[12] = tested on: chin acne; furunculosis (eczema); assay: Anti-acne and anti-inflammatory effect in cats (chin acne, furunculosis); assay type: in vivo, cat; conditions: 5% alcoholic solution, twice daily for 14 days
Method: The compounds of the present invention have been shown in animals to alleviate the symptoms of acne. Four cats with persistant chin acne were treated twice daily for 14 days with 5% alcoholic solution of di(ethyl salicylate) azelate. […] The skin lesions disappeared and the bald areas were covered with new hair.
Anti-acne and anti-inflammatory effect of di(ethyl salicylate) azelate. Four cats were admitted to the veterinary clinic with skin lesions identified as chin acne. One additional cat had localized furunculosis (eczema) on the chin. The area of the skin lesions was 1-4 cm^2 at baseline. All animals were previously treated with either benzoyl peroxide or topical steroids with no response. Cats were treated twice daily for 14 days with a 5% alcoholic solution of di(ethyl salicylate) azelate.

[13] = Keratinocyte, 72 h, 3 days incubation, 50% inhibition of cell proliferation, Table 1, read-out: IC50 (inhibitory concentration)
[14] = keratinocyte cell line, read-out: inhibitory concentration, cell proliferation
[15] = cytotoxic concentrations higher than inhibitory concentrations
[16] = listed as di(ethyl salicylate) azelate

SMILES | IC50 [1, 13] [µM] | IC50 [1, 14] [µM] | CC50 at 72 h [2] [µM] | selectivity ratio ([2]; Safety factor (CD50/ID50)) | potency in inhibiting cell proliferation (in words) [1] | CC50 [2] [µM] | selectivity ratio [2, 15] | selectivity ratio ([2]; therapeutic safety margin) | also measured
O=C(O)CCCCCCCC(=O)O [Azelaic acid, reference compound] | 1500 | 1000 | 4000 | 2.6 | – | – | – | – | selectivity ratio ([2]; cytotoxic concentration, times higher than inhibitory concentration): 2.6; time of topical application until effective in acne [3]: 3-6 months; skin oiliness / sebum composition, sebum excretion rate, size of sebaceous glands [4]: can not alter skin oiliness; skin oiliness / sebum composition, sebum excretion rate, size of sebaceous glands ([4]; listed as AZA): failed to induce specific changes in sebum composition, sebum excretion rate and the size of sebaceous glands; effect on keratinocytes [5]: antiproliferative effects on keratinocytes; inhibition of testosterone reduction to dihydrotestosterone [6]: competitive inhibitor of the reduction of testosterone to dihydrotestosterone
CC1=C(/C=C/C(C)=C/C=C/C(C)=C/COC(=O)CCCCCCCC(=O)OC/C=C(C)/C=C/C=C(C)/C=C/C2=C(C)CCCC2(C)C)C(C)(C)CCC1 [Di-retinyl azelate, di-retinyl azelate] | 15 | 15 | 100 | 6.6 | significantly more potent than azelaic acid and salicylic acid | 100 | 6.6 to 10 | 6.6 to 10 | –
O=C(O)c1ccccc1O [Salicylic acid, o-hydroxybenzoic acid, reference compound] | – | – | 6000 | – | – | – | – | – | IC50 ([1]; Keratinocyte, 72 h, read-out: IC50 (inhibitory concentration)): 1600 µM; selectivity ratio [2]: 3.8
CCOC(=O)c1ccccc1OC(=O)CCCCCCCC(=O)Oc1ccccc1C(=O)OCC [di(ethyl salicylate)azelate, Nonanedioic acid, di-[(2'-ethoxycarbonyl)phenyl]ester] | 300 | 300 | 3000 | 10 | significantly more potent than azelaic acid and salicylic acid | 3 | 6.6 to 10 | 6.6 to 10 | reduction of comedones ([7]; 10% topical, once daily five weekdays for three weeks): effective in the reduction of comedones; also recorded: All three treated ears showed a marked reduction of the comedones; comedolytic effect compared with 0.025% Retin A Cream ([7]; 10% topical, rabbit ear): comparable to the effect of 0.025% Retin A Cream; comedolytic effect compared with 20% azelaic acid preparation of the prior art ([7]; 10% topical, rabbit ear, comparison with Lee et al.): superior to a 20% (1,060 mmole/ml) azelaic acid preparation; inflammatory response in treated area ([7]; topical, rabbit ear, Retin A at 0.025%): did not induce any inflammatory response in the treated area; also recorded: no inflammatory reaction; skin reaction / irritation [8]: did not irritate the skin; also recorded: no sign of any skin reaction; signs of skin irritation [9]: no signs of irritation; signs of skin irritation [9, 16]: no signs of skin irritation were observed; sebum value (skin oiliness) after treatment [10]: 205 units; improvement of lesions and hair growth [11]: After one week of treatment, there was a marked improvement in the appearance of all treated lesions; also recorded: hair seemed to regrow and the skin looked healthy. This improvement persisted throughout 14 days of treatment and observation; improvement of lesions and hair growth [11, 16]: After one week of treatment, there was a marked improvement in the appearance of all treated lesions. Hair regrew and the skin looked healthy; skin irritation in treated cats [12]: No skin irritation was noticed in any of the treated cats; response of chin acne ([12]; four cats): Three of the four cats responded to treatment within 10 days; also recorded: Three of the four cats responded to treatment within ten days; response of furunculosis (eczema) ([12]; one cat): responded positively; also recorded: successfully treated
